Values quoted from earlier work as cited in patent US6174513A, “Stabilization of peptides and proteins for radiopharmaceutical use” (priority 1998, dated 2001).

System: somatostatin receptors in a variety of human tumors

C[C@@H](O)[C@@H]1NC(=O)[C@H](CCCCN)NC(=O)[C@@H](Cc2c[nH]c3ccccc23)NC(=O)[C@H](Cc2ccccc2)NC(=O)[C@@H](NC(=O)[C@H](N)Cc2ccccc2)CSSC[C@@H](C(=O)N[C@H](CO)[C@@H](C)O)NC1=O [Octreotide]
Binding affinity to somatostatin receptors: very high binding affinity
